# Results from article PMC6667604, “Mechanism of action of antimicrobial peptide P5 truncations against Pseudomonas aeruginosa and Staphylococcus aureus” (AMB Express, 2019).
# Where two headings read alike, the source gives them in different places. Peptide text beside a SMILES is read from it.
# Experiments:
# A. baumannii KCTC 2508 = format: cell-based, Acinetobacter baumannii
# Experimental: (§1) We detected the antimicrobial activity of peptides against Gram-negative bacteria (P. aeruginosa ATCC 27853 and A. baumannii KCTC 2508) and Gram-positive bacteria (S. aureus ATCC 25923 and B. subtilis KCTC 2217). The minimum inhibitory concentrations (MICs) of the parental and truncated peptides were determined using the microbroth dilution method, as previously described (Jorgensen [1993]). The bacteria were incubated overnight with shaking at 37 °C. The bacteria were diluted to 2 × 10^5 colony forming units (CFU)/mL in Mueller–Hinton broth (MHB) media. The peptides were serially diluted in 10 mM sodium phosphate buffer and then 50 µL of the bacteria and 50 µL of the peptide solutions were mixed and incubated for 18 h at 37 °C. The MICs were measured as the absorbance at 600 nm using a Versa Max microplate reader (Molecular Devices, Sunnyvale, CA, USA). The samples were analyzed in triplicate.
# B. subtilis KCTC 2217 = format: cell-based, Bacillus subtilis
# Experimental: as §1
# HaCaT cells = assay: Cytotoxicity, MTT assay; format: cell-based, human; conditions: 24 h, 1.56 µM
# Experimental: Human skin epithelial cells (HaCaT cells) were cultured in Dulbecco’s modified Eagle’s medium (DMEM) with 10% fetal bovine serum (FBS) at 37 °C in 5% CO2. Cytotoxicity was determined using the MTT assay (Deng et al. [2015]). HaCaT cells were plated at 2 × 10^4 cells/well in 96-well plates. After overnight incubation, the peptides were added at various concentrations for 24 h, and then 5 mg/mL of MTT was added to each well. After 1 h, the supernatant was removed and 100 μL of DMSO was added to each well to dissolve the formazan crystals. Cytotoxicity was measured at an absorbance of 570 nm using a microplate reader (VersaMax). The cell viability percentage (cell viability rate) was calculated using the following equation (Kim et al. [2018]): Cell viability percentage%=peptide treated sample[…]×100.
# P. aeruginosa ATCC 27853 [1] = format: cell-based, Pseudomonas aeruginosa; conditions: ATCC 27853, 18 h
# Experimental: as §1
# S. aureus ATCC 25923 [2] = format: cell-based, Staphylococcus aureus; conditions: ATCC 25923, 18 h
# Experimental: as §1
# S. aureus ATCC 25923 [3] = format: cell-based, Staphylococcus aureus; conditions: ATCC 25923, 18 h; remark: listed apart in the source
# Experimental: as §1
# (§2) The effects of various cations on the antimicrobial activity of P5 and the truncated peptides were determined against P. aeruginosa ATCC 27853 and S. aureus ATCC 25923. Bacteria were treated with the peptides in the presence of NaCl (50, 100, and 150 mM), MgCl2 (0.5, 1, and 2 mM), and FeCl3 (1, 4, and 8 µM). The MIC values were the same as those described above.
# P. aeruginosa ATCC 27853 [4] = format: cell-based, Pseudomonas aeruginosa; conditions: ATCC 27853, 18 h; remark: listed apart in the source
# Experimental: as §1, §2
# [5] = test system: red blood cells (RBCs) from mice; assay: Hemolytic activity; format: cell-based; conditions: mouse RBCs 8% in PBS, peptide 100 µM, 1 h at 37 °C, absorbance 414 nm, 0.1% Triton X-100 positive control
# Experimental: To determine the hemolytic activities of the peptides against red blood cells (RBCs) from mice, RBCs were centrifuged at 2000×g for 5 min and washed with 1 mL of phosphate-buffered saline solution (PBS) three times. The supernatant was removed and the RBCs were diluted to 8% in PBS. After serial dilution, 60 µL of the RBCs and peptides were added to a 96-well plate and incubated at 37 °C for 1 h. The plate was centrifuged at 1500×g for 10 min, 100 µL of the supernatant was transferred to a new plate, and the absorbance was measured at 414 nm (Versa-Max enzyme-linked immunosorbent assay (ELISA) reader). Additionally, 0.1% Triton X-100 and PBS were used as positive and negative controls, respectively. The hemolytic activity percentage (hemolysis rate) was calculated using the following equation (Han et al. [2016]): Hemolysis percentage%=peptide solution-negative control/positive control-PBS×100.
SMILES,"MIC (A. baumannii KCTC 2508; A. baumannii KCTC 2508, MHB, 2 × 10^5 CFU/mL, 18 h at 37 °C, absorbance 600 nm, triplicate) [µM]","MIC (B. subtilis KCTC 2217; B. subtilis KCTC 2217, MHB, 2 × 10^5 CFU/mL, 18 h at 37 °C, absorbance 600 nm, triplicate) [µM]",cytotoxicity (HaCaT cells),MIC (P. aeruginosa ATCC 27853 [1]) [µM],"MIC (A. baumannii KCTC 2508; KCTC 2508, 18 h) [µM]",MIC (S. aureus ATCC 25923 [2]) [µM],"MIC (B. subtilis KCTC 2217; KCTC 2217, 18 h) [µM]",MIC (S. aureus ATCC 25923 [3]) [µM],MIC (P. aeruginosa ATCC 27853 [4]) [µM],hemolysis [5]
"CC[C@H](C)[C@H](NC(=O)CN)C(=O)NCC(=O)N[C@@H](C)C(=O)N[C@H](C(=O)N[C@@H](CC(C)C)C(=O)N[C@@H](CCCCN)C(=O)N[C@H](C(=O)N[C@@H](CC(C)C)C(=O)N[C@H](C(=O)N[C@H](C(=O)NCC(=O)N[C@@H](CC(C)C)C(=O)N1CCC[C@H]1C(=O)N[C@@H](C)C(=O)N[C@@H](CC(C)C)C(=O)N[C@H](C(=O)N[C@@H](CO)C(=O)N[C@@H](Cc1c[nH]c2ccccc12)C(=O)N[C@H](C(=O)N[C@@H](CCCCN)C(=O)N[C@@H](CCCNC(=N)N)C(=O)N[C@@H](CCCCN)C(=O)N[C@@H](CCCNC(=N)N)C(=O)N[C@@H](CCC(N)=O)C(=O)N[C@@H](CCC(N)=O)C(N)=O)[C@@H](C)CC)[C@@H](C)CC)[C@@H](C)O)[C@@H](C)O)C(C)C)C(C)C [Melittin, reference compound]",1.56,0.78,highly toxic,–,–,–,–,–,–,–
CC(C)C[C@H](NC(=O)[C@H](CC(C)C)NC(=O)[C@H](CCCCN)NC(=O)[C@H](CCCCN)NC(=O)[C@H](CC(C)C)NC(=O)[C@H](CC(C)C)NC(=O)[C@@H]1CCCN1C(=O)[C@H](CCCCN)NC(=O)[C@H](CCCCN)NC(=O)[C@H](CC(C)C)NC(=O)[C@H](CC(C)C)NC(=O)[C@H](CCCCN)NC(=O)[C@H](CCCCN)NC(=O)[C@H](Cc1c[nH]c2ccccc12)NC(=O)[C@@H](N)CCCCN)C(=O)N[C@@H](CCCCN)C(N)=O [P5-CT1] (H-KWKKLLKKPLLKKLLK-NH2),–,–,–,1.56,3.13,1.56,1.56,0.78,–,–
CC(C)C[C@H](NC(=O)[C@H](CCCCN)NC(=O)[C@H](CCCCN)NC(=O)[C@H](CC(C)C)NC(=O)[C@H](CC(C)C)NC(=O)[C@@H]1CCCN1C(=O)[C@H](CCCCN)NC(=O)[C@H](CCCCN)NC(=O)[C@H](CC(C)C)NC(=O)[C@H](CC(C)C)NC(=O)[C@H](CCCCN)NC(=O)[C@H](CCCCN)NC(=O)[C@H](Cc1c[nH]c2ccccc12)NC(=O)[C@@H](N)CCCCN)C(N)=O [P5-CT2] (H-KWKKLLKKPLLKKL-NH2),–,–,–,6.25,12.5,1.56,3.13,–,–,–
CC(C)C[C@H](NC(=O)[C@H](CC(C)C)NC(=O)[C@@H]1CCCN1C(=O)[C@H](CCCCN)NC(=O)[C@H](CCCCN)NC(=O)[C@H](CC(C)C)NC(=O)[C@H](CC(C)C)NC(=O)[C@H](CCCCN)NC(=O)[C@H](CCCCN)NC(=O)[C@H](Cc1c[nH]c2ccccc12)NC(=O)[C@@H](N)CCCCN)C(=O)N[C@@H](CCCCN)C(N)=O [P5-CT3] (H-KWKKLLKKPLLK-NH2),–,–,–,> 25,> 25,3.13,6.25,–,> 25,–
CC(C)C[C@H](NC(=O)[C@H](CCCCN)NC(=O)[C@H](CCCCN)NC(=O)[C@H](CC(C)C)NC(=O)[C@H](CC(C)C)NC(=O)[C@H](CCCCN)NC(=O)[C@H](CCCCN)NC(=O)[C@H](CC(C)C)NC(=O)[C@H](CC(C)C)NC(=O)[C@@H]1CCCN1C(=O)[C@H](CCCCN)NC(=O)[C@H](CCCCN)NC(=O)[C@H](CC(C)C)NC(=O)[C@H](CC(C)C)NC(=O)[C@H](CCCCN)NC(=O)[C@@H](N)CCCCN)C(N)=O [P5-NT1] (H-KKLLKKPLLKKLLKKL-NH2),–,–,–,1.56,3.13,1.56,1.56,0.78,–,–
CC(C)C[C@H](NC(=O)[C@H](CCCCN)NC(=O)[C@H](CCCCN)NC(=O)[C@H](CC(C)C)NC(=O)[C@H](CC(C)C)NC(=O)[C@H](CCCCN)NC(=O)[C@H](CCCCN)NC(=O)[C@H](CC(C)C)NC(=O)[C@H](CC(C)C)NC(=O)[C@@H]1CCCN1C(=O)[C@H](CCCCN)NC(=O)[C@H](CCCCN)NC(=O)[C@H](CC(C)C)NC(=O)[C@@H](N)CC(C)C)C(N)=O [P5-NT2] (H-LLKKPLLKKLLKKL-NH2),–,–,–,3.13,12.5,1.56,1.56,–,–,–
CC(C)C[C@H](NC(=O)[C@H](CCCCN)NC(=O)[C@H](CCCCN)NC(=O)[C@H](CC(C)C)NC(=O)[C@H](CC(C)C)NC(=O)[C@H](CCCCN)NC(=O)[C@H](CCCCN)NC(=O)[C@H](CC(C)C)NC(=O)[C@H](CC(C)C)NC(=O)[C@@H]1CCCN1C(=O)[C@H](CCCCN)NC(=O)[C@@H](N)CCCCN)C(N)=O [P5-NT3] (H-KKPLLKKLLKKL-NH2),–,–,–,6.25,25,1.56,1.56,0.78,–,–
CC(C)C[C@H](NC(=O)[C@H](CCCCN)NC(=O)[C@H](CCCCN)NC(=O)[C@H](CC(C)C)NC(=O)[C@H](CC(C)C)NC(=O)[C@H](CCCCN)NC(=O)[C@H](CCCCN)NC(=O)[C@H](CC(C)C)NC(=O)[C@H](CC(C)C)NC(=O)[C@@H]1CCCN1C(=O)[C@H](CCCCN)NC(=O)[C@H](CCCCN)NC(=O)[C@H](CC(C)C)NC(=O)[C@H](CC(C)C)NC(=O)[C@H](CCCCN)NC(=O)[C@H](CCCCN)NC(=O)[C@H](Cc1c[nH]c2ccccc12)NC(=O)[C@@H](N)CCCCN)C(N)=O [P5] (H-KWKKLLKKPLLKKLLKKL-NH2),–,–,–,3.13,1.56,1.56,1.56,1.56,–,approximately 14%
